The source of these data is paper PMC7687371, “Quantitative in Vitro to in Vivo Extrapolation (QIVIVE) for Predicting Reduced Anogenital Distance Produced by Anti-Androgenic Pesticides in a Rodent Model for Male Reproductive Disorders” (Environmental Health Perspectives, 2020).

Series [1] relates to NCI-H295R cells. Briefly: H295R steroidogenesis assay. The format is cell-based, human. Particulars: for Effect on androgen (steroid) synthesis, in words: H295R steroidogenesis assay. How it is done:
To capture effects on steroid hormone synthesis (testosterone and androstendione), we tested all 12 pesticides in the H295R assay with the human adrenocortical carcinoma cell line NCI-H295R (American Type Culture Collection no. CRL-2,128, LGC Standards), as previously described ([Hecker et al. 2011]; [Rosenmai et al. 2013]). In brief, cells were cultured in DMEM/F-12 +glutamine medium with HEPES buffer (Invitrogen) containing 1% insulin-transferrin-sodium selenite plus Premix (VWR) and 2.5% Nu-Serum (BD Bioscience) at 37°C in a 5% CO2 atmosphere. The day before exposure, cells were seeded 300,000 per well in clear 24-well plates (VWR Corning). Cells were exposed for 48 h to control (Forskolin: 1μM , 10μM (Sigma-Aldrich); and Prochloraz: 0.3μM , 3μM (VWR-Bie and Berntsen) or test compounds. The vehicle (DMSO) concentration was kept constant in all wells (0.1%). After 48 h, the exposure culture medium was removed and stored at –80°C until the levels of 10 steroid hormones (testosterone, androstenedione, aldosterone, corticosterone, cortisol, dehydroepiandrosterone, 17α-hydroxyprogesterone , progesterone, estrone, and 17β-estradiol ) were quantified using the high-performance liquid chromatography–tandem mass spectrometry method described elsewhere ([Mortensen and Pedersen 2007]). Minor modifications were made to accommodate a smaller sample size and to include more hormones. The liquid chromatography system (Agilent 1100) was equipped with an Atlantis C18 column ( 2.1×150mm , 3μm ) (Waters Corp.) maintained at 40°C. The sample injection volume was 50μL . […] The mass spectrometer was a Quattro Ultima triple quadrupole instrument (Waters Corp.). […] Each pesticide was tested in 2-fold serial dilutions at concentrations between 0.8 and 50μM in three independent experiments, and hormone levels were normalized to the solvent controls containing 0.1% DMSO. Cell viability was evaluated by using the 3-(4,5-dimethylthiazol-2-yl)-2,5- diphenyltetrazolium bromide (MTT) assay (Sigma) as previously described ([Hecker et al. 2011]; [Rosenmai et al. 2013]). Fluorescence was measured (excitation 560 nm , emission 590 nm ) using a Wallac Victor2 1420 multilabel counter (PerkinElmer).

Details of series [2]: method as in U.S. EPA 2012. Particulars: EPI Suite, experimental preferred over modeled; ref U.S. EPA 2012; cited from earlier work.
Series [3] can be described thus: PBK model first-order kinetic parameters fitted to in vivo ADME data. The arrangement: species or system rat. The conditions noted are these: PBK model parameter; for Metabolism rate in liver, Total (L/h) KMetab: metabolic clearance.
The test system of series [4] is NCI-H295R cells. Nature of the series: Cell viability (MTT) in the H295R assay. The format is cell-based, human. How it is done: To capture effects on steroid hormone synthesis (testosterone and androstendione), we tested all 12 pesticides in the H295R assay with the human adrenocortical carcinoma cell line NCI-H295R (American Type Culture Collection no. CRL-2,128, LGC Standards), as previously described ([Hecker et al. 2011]; [Rosenmai et al. 2013]). In brief, cells were cultured in DMEM/F-12 +glutamine medium with HEPES buffer (Invitrogen) containing 1% insulin-transferrin-sodium selenite plus Premix (VWR) and 2.5% Nu-Serum (BD Bioscience) at 37°C in a 5% CO2 atmosphere. The day before exposure, cells were seeded 300,000 per well in clear 24-well plates (VWR Corning). Cells were exposed for 48 h to control (Forskolin: 1μM , 10μM (Sigma-Aldrich); and Prochloraz: 0.3μM , 3μM (VWR-Bie and Berntsen) or test compounds. The vehicle (DMSO) concentration was kept constant in all wells (0.1%). After 48 h, the exposure culture medium was removed and stored at –80°C until the levels of 10 steroid hormones (testosterone, androstenedione, aldosterone, corticosterone, cortisol, dehydroepiandrosterone, 17α-hydroxyprogesterone , progesterone, estrone, and 17β-estradiol ) were quantified using the high-performance liquid chromatography–tandem mass spectrometry method described elsewhere ([Mortensen and Pedersen 2007]). Minor modifications were made to accommodate a smaller sample size and to include more hormones. […]

For series [5] the following is noted: ref Wetmore et al. (2012); cited from earlier work.
For another series, the system named is pregnant dams and pups. The conditions noted are these: ref EFSA's Draft Assessment Reports (DARs); cited from earlier work.
Series [6] has as its system Wistar rats. Particulars: rat, in vivo, cited from earlier work.
Series [7] deals with Wistar rats. The conditions noted are these: male, rat, in vivo, 40 mg/kg/day. Here is the method:
In total, four in vivo exposure studies were conducted with pesticide exposures to pregnant rats during gestation and lactation to the selected compound (Table 2). […] For one selected dose of each compound, the internal body concentrations in dams and fetuses were determined by cesarean section at GD21. Due to the study outcomes from the third study, we conducted a fourth follow-up study on dimethomorph (Study 4).
Pup weights and AGD were measured after birth at PD1 using a stereomicroscope with a micrometer eyepiece and were determined as the distance between the genital papilla and the anus. To discriminate between an anti-androgenic effect and stunted growth, the AGD index (AGDI) was calculated by dividing AGD by the cube root of the BW (as described by [Hass et al. 2007]). The estimation of AGDI effect doses by regression modeling required a standardized AGDI scale. Therefore, we normalized the AGDI values in relation to the dynamic range spanned by the mean AGDI of the male and the female controls as (38) normalized AGDI=mean(AGDI of male controls)−AGDI(exposed animal)/mean(AGDI of male controls)−mean(AGDI of female controls).

Series [8] can be described thus: Fetal chemical exposure analysis (LC-QTOF) at GD21. The format is in vivo, rat. Particulars: fetal plasma GD21, mean litter value; dams dosed 40 mg/kg BW per day parent compound (Study 1). Here is the method: Dams were decapitated under CO2 /oxygen anesthesia at GD21 and fetuses collected by cesarean section. Prior to decapitation of the fetuses, their BWs and AGDs were recorded. Blood from the dams was collected in heparinized vacutainer tubes, centrifuged at 125×g for 10 min at 4°C to prepare plasma, and, together with the amniotic fluid, frozen directly. Pooled trunk blood from all female and male fetuses of the same litter (female and male blood separately) was collected into heparin-treated capillary tubes approximately 90 min after dosing and the plasma was prepared and stored at −80°C until analysis for pesticides and selected metabolites by liquid chromatography quadrupole time-of-flight mass spectroscopy (LC-QTOF). Details about the LC-QTOF analyses are provided in “Method S1” in Supplemental Material. Amniotic fluid was collected from fetuses by pipetting, pooled within each litter, snap frozen in liquid nitrogen, and subsequently stored at −80 °C .
Method S1. Chemical analysis of pesticide levels
Acetonitrile, methanol, formic acid and 25% ammonium hydroxide, all of LC-MS grade and ethyl acetate were obtained from Sigma Aldrich, Schneldorf, Germany. Isolute bulk C-18 sorbent was obtained from Biotage, Sweden and was washed with acetonitrile and ethyl acetate and dried prior to use. Water was purified on a Milli Q system, Millipore Corporation, US.
Pesticide standards were purchased from Dr. Ehrenstorfer (Augsburg, Germany), LGC-standards (Teddington, Middlesex, UK) and Sigma Aldrich (St. Louis, MO, USA). Acetonitrile used as solvents for the LC-QTOF was LiChrosolv Hypergrade. An ESI-L low concentration tuning mix from Agilent (Santa Clara, CA, USA) was used for tuning of the TOF. A reference solution was prepared containing Purine and HP0921 from Agilent (Santa Clara, CA, USA).
Stock solutions of the pesticides were prepared at 1 mg/ml in acetonitrile, methanol or toluene.
Standard mixtures containing the test compounds were prepared at a concentration of 10 µg/ml acetonitrile and used for preparation of calibration solutions. Isomers eluting very close to each other were avoided in these mixtures. […]
added 200 µl of ice-cold acetonitrile in Eppendorf tubes. Internal standard was added in the form of 10 µl TPP (5 µg/ml) and the extraction was performed by whirl mixing. The tube was then stored on ice for 5 min and then centrifuged at 10,000 x g for 10 min at 4 °C (Ole Dich Instrument, Denmark). An aliquot of the supernatant was transferred to filter vials (0.45 µm) and analysed by […]
Quality control samples were included in each analytical run. These were prepared using the same procedure as for the samples, though using amniotic fluid from untreated control Wistar rats extracted with acetonitrile containing three different levels of the relevant pesticide standards. The resulting spike levels were 0.04, 0.013 and 0.13 µg/ml. […]
fluid or plasma from Sprague Dawley rats was transferred to an Eppendorf vial and added 150 µl of acetonitrile. 50 mg of isolute C-18 sorbent was added to the tube, which was shaken for 5 min, […]
cooled to 4 °C and centrifuged at 10,000 x g for 10 min at 4 °C (Ole Dich Instrument makers, Denmark). 20 µl of the supernatant was transferred to an HPLC vial and mixed with 80 µl of 5%- 75% acetonitrile (this percentage was analyte dependent) prior to analysis by LC-MS.LC -QTOF […]
Pesticide screening was carried out using a liquid chromatography-electrospray ionization-quadrupole-time of flight-mass spectrometer.
The LC system was connected to a Bruker Daltonics, maXis qTOF mass spectrometer equipped with an electrospray ion source operated in positive ion mode (Bruker Daltonics, Bremen, Germany). The ion source settings were: nebulizer pressure 2 bars, drying gas flow 8 l/min, dry gas temperature 200 °C, capillary voltage 2500 V. The scan range was from 80 to 700 m/z with an acquisition rate of 2 Hz. Sodium formate dissolved in 50% 2-propanol was introduced in the ion […]

Read-outs that look alike come from different tables or passages of the source. Marks after values point to notes of the source that are not given here.

By IC20 is commonly meant the concentration needed for an effect of 20%.

Turning to `Fc1ccc(Oc2ccnc3cc(Cl)cc(Cl)c23)cc1` [Quinoxyfen, quinoxyphen], the “Effect on androgen (steroid) synthesis, in words” value with NCI-H295R cells [1] is on record as “inhibited testosterone synthesis”. Also, the IC20 in the series with NCI-H295R cells [1] (Homo sapiens, NCI-H295R, read-out: Testosterone inhibition (IC20 µM)) stood at 1000 nM. In addition, in the series on NCI-H295R cells [1] (multiple contrast tests), the “Androstendione, LOEC” value came out at 1.6 µM; the “Corticosterone, LOEC” value stood at 3.1 µM; the “DHEA, LOEC” value is reported as 1.6 µM; the “Estradiol, LOEC” value is 25 µM. Also, in the series with NCI-H295R cells [1] (multiple contrast tests), the “Progesterone, LOEC” value is 50 µM and the “Testosterone, lowest observed effect concentration (LOEC)” value was found to be 1.6 µM. Also, the “log Kow” value in series [2] is reported as 4.66. For the same compound, in series [3], the “Biliary excretion rate (L/h) KBiliary” value turned out to be 1.4 L/h, the “Fecal excretion rate from gut (L/h) KFeces” value came to 2 L/h, the “Portal GI absorption rate into liver (L/h) KAS” value is on record as 1 L/h and the “Urine excretion rate from kidney (L/h) KUrine” value was found to be 0.01 L/h. The “Metabolism rate in liver, Total (L/h) KMetab” value in series [3] turned out to be 0.3 L/h. Moreover, the “Cytotoxicity in H295R assay, concentrations” value with NCI-H295R cells [4] is “cytotoxicity was observed at the same concentrations”. Further, in [5], the “Unbound plasma fraction (%)” value was 5.0^g %. For the same compound, in the series on pregnant dams and pups, the Critical toxicity result is reported as “Reduced pup BW during lactation, liver hypertrophy”; the “LOAEL (mg/kg bw)” value is 100 mg/kg bw; the “NOAEL (mg/kg bw)” value is recorded as 25 mg/kg bw.
Turning to `C=CC1(C)OC(=O)N(c2cc(Cl)cc(Cl)c2)C1=O` (stereo not shown) [Vinclozolin, vinclozolin], the “AGDI (normalised to male and female controls) mean” value in the series on Wistar rats [6] (5 mg/kg) is recorded as 0.96; with Wistar rats [6] (10 mg/kg), 0.80; with Wistar rats [6] (20 mg/kg), 0.83; in the series on Wistar rats [6] (24.5 mg/kg), 0.93; in the series on Wistar rats [6] (40 mg/kg) it was 0.72; in the series with Wistar rats [6] (80 mg/kg), 0.46. In addition, the “AGDI (normalised to male and female controls) mean” value in the series on Wistar rats [6] (95.9 mg/kg) is 0.42; in the series on Wistar rats [6] (160 mg/kg), 0.25. The “AGDI ED10” value in the series with Wistar rats [6] is reported as 9.2 mg/kg BW. Also, the “AGDI ED50” value in the series with Wistar rats [6] was 78.7 mg/kg BW. Besides, in the series with NCI-H295R cells [1], the “Effect on androgen (steroid) synthesis, in words” value was “negligible activity in terms of suppressing steroid synthesis”. In series [2], the “log Kow” value was 3.10. Besides, in series [3], the “Portal GI absorption rate into liver (L/h) KAS” value turned out to be 0.5 L/h. In series [3], the “Urine excretion rate from kidney (L/h) KUrine” value is on record as 0.05 L/h. The “Metabolism rate in liver, Total (L/h) KMetab” value in series [3] is listed as 1.4 L/h. Moreover, in the series on Wistar rats [7], the “AGDI reduction (%)” value is 26^d %. Further, in series [5], the “Unbound plasma fraction (%)” value was 59^g %. In addition, in series [8], the “Measured concentration in male fetuses (μM)” value is recorded as <0.15 ^e μM.
